Measured values taken from PMC2361176, “Inhibitory effects of retinoic acid metabolism blocking agents (RAMBAs) on the growth of human prostate cancer cells and LNCaP prostate tumour xenografts in SCID mice” (British Journal of Cancer, 2006).
Entries after “also recorded” stand apart in the source; their conditions may differ.

How the values were obtained:
LNCaP cells [1] = assay: WST-1 cell viability / LNCaP cell growth inhibition assay; format: cell-based; details: Homo sapiens, 144 h, 6 days, read-out: Cell growth inhibition, agents alone, IC50
Method: To measure cell viability, 24-well plates were coated with a 0.05% poly-L-lysine solution for 30 min. The wells were then washed with sterilised dH2O. LNCaP cells (1 × 10^4) were seeded in the plates and maintained in RPMI 1640 medium (Gibco-Invitrogen, Carlsbad, CA, USA). The cells were allowed to attach for 36 h. After attachment, fresh media was added and the cells were treated with a concentration range of either ATRA or each of the RAMBAs for 6 days. The media was changed every 3 days. On the day the assay was performed, the media was removed and 1 ml of a stock solution of WST-1 (4-[3-(4-iodophenyl)-2-(4-nitrophenyl)-2H-5-tetrazolio]-1,3-benzene disulfonate) cell proliferation reagent (Boehringer Mannheim, Indianapolis, IN, USA), diluted 1 : 10 in RPMI 1640 medium (without FBS), was added to each well. The plates were incubated at 37°C for 3 h. The media was then removed and 500 μl of DMSO was added and agitated vigorously for 5 min. The slightly red tetrazolium salt WST-1 is reduced to a dark red, water-soluble formazan product by mitochondrial dehydrogenase from living cells, which gives absorbance at a wavelength of 450 nm.

LNCaP cells [2] = assay: Cell-cycle analysis (propidium iodide, FACScan); format: cell-based, human; details: 5 μM, 6 days; for Sub-G1 (%): apoptotic cells, control 9.02; for G2/M (%): control 2.20; for S (%): control 15.01; for G0/G1 (%): control 82.78
Method: LNCaP cells were treated with 1 or 5 μM of ATRA or each of the RAMBAs for 6 days. The cells were trypsinised and washed twice in PBS (Life Technologies, Grand Island, NY, USA). The cells were fixed by adding 70% ethanol and stored at −20°C until staining. The cells were washed twice in PBS. A volume of 1 ml of a propidium iodide (PI) solution (50 μg ml^−1 in PBS) and 500 μl of an RNase stock solution (100 μg ml^−1) were added to the cells and incubated for 1 h in the dark. Approximately 10^4 stained cells were then analysed by flow cytometry (Becton Dickenson FACScan, Franklin Lakes, NJ, USA). The percentages of cells in G0/G1, S, and G2/M phases of the cell cycle as well as percentage of apoptotic cells (sub G0/G1) were determined using MODFIT LT software (Verity Software House, San Jose, CA, USA). The percentages of cells in G0/G1, S, and G2/M phases of the cell cycle were obtained from diploid cells in the sample and the percentage of apoptotic cells (sub G0/G1) was obtained from total cells minus the debris.

LNCaP cells [3] = assay: TUNEL assay of apoptosis in LNCaP cells; format: cell-based, human; details: 6 days; for induction of apoptosis (TUNEL): 1 or 5 μM; for percentage of apoptotic cells (TUNEL): 5 μM
Method: A total of 4000 LNCaP cells were plated on each well of an eight-well Lab-Tek II® chamber slide (Nalge Nunc International, Naperville, IL, USA). The LNCaP cells were then treated with either 1 or 5 μM of ATRA or RAMBA for 6 days. Cells were then fixed in 4% paraformaldehyde solution in dH2O. The cells were then processed and stained with FITC (fluorescein isothiocyanate) according to kit instructions (In situ cell death detection kit, AP, Roche Diagnostics Corp., Indianapolis, IN, USA). The FITC-stained cells are then mounted with VectorShield® mounting medium for fluorescence with DAPI (4′,6-diamidine-2′-phenylindole dihydrochloride) nuclear stain (Vector Laboratories, Inc., Burlingame, CA, USA) and covered with ApopTag® plastic coverslips (Intergen Company, Purchase, NY, USA). The slides were then examined under fluorescence microscopy (Eclipse E400, Nikon, Inc., Melville, NY, USA) and counted using SPOT Advance® 3.5 software (Diagnostic Instruments, Inc., Sterling Heights, MI, USA).

Bad = assay: Western-blot analysis of Bad in LNCaP cells; format: cell-based, human; details: 5 and 10 μM, P<0.05
Method: The Western-blot protocol described for cytokeratins 8/18 was followed with some exceptions. Cell lysates (50 μg) were separated on a 15% SDS–PAGE gel. All washing was performed using TBS containing 1% Tween 20 (TBS-T). Blocking was performed using 5% milk in TBS-T. Incubations were performed using rabbit monoclonal IgG antibody to Bad and Bcl-2 (1 : 1000), as well as horseradish peroxidase-linked anti-rabbit IgG antibodies (1 : 2000) (Cell Signaling Technology, Beverly, MA, USA).

[4] = Tolerability and body weight in the LNCaP xenograft study; format: in vivo; details: 0.033 mmol kg−1 once daily
Method: All animal studies were performed according to the guidelines and approval of the Animal Care Committee of the University of Maryland School of Medicine, and were consistent with United Kingdom Coordinating Committee on Cancer Research guidelines for the welfare of animals in experimental neoplasia. The procedure was modified from [Grigoryev et al (1999)]. Briefly, LNCaP cells were trypsinised, counted, and suspended in Matrigel (2 × 10^7 cells ml^−1) (Fisher Scientific International, Inc., Hampton, NH, USA). Male SCID mice of 4–6 weeks of age were obtained from the National Cancer Institute (Frederick, MD, USA). Each mouse was inoculated s.c. with 0.1 ml of the cell suspension at two sites in the flank. The size of the tumours was determined by measuring the tumour volumes using calipers. Tumour volumes were calculated using the formula V=4/3 × π × r1^2 × r2(r1<r2). The tumours were allowed to develop to approximately 100 mm^3 before treatment. […] Tumour volumes were measured twice weekly and weights of animals were taken weekly after the initiation of treatment. The mice were subjected to 6 weeks of treatment. The mice were then killed and the tumours were excised, weighed, and stored at −80°C until analysis. Additionally, the plasma was collected with 50 IU of heparin and stored at −80°C until analysis.

T47D cells = system: T47D cells; design: method as in Patel et al, 2004; details: cellular assay; ref Patel et al, 2004; read-out: IC50, inhibition of ATRA metabolism in T47D cells; cited from earlier work
[5] = system: MCF-7 human breast cancer model; design: method as in Patel et al, 2004, 2006; details: ref Patel et al, 2004, 2006; cited from earlier work

Row | IC50 (LNCaP cells [1]) [µM] | SMILES | Sub-G1 (%) (LNCaP cells [2]) | G2/M (%) (LNCaP cells [2]) | S (%) (LNCaP cells [2]) | G0/G1 (%) (LNCaP cells [2]) | induction of apoptosis (TUNEL) (LNCaP cells [3]) | Bad expression compared with control (Bad) | reduction of body weights compared to control ([4]; data not shown) [%] | toxicity to the mice [4] | IC50 (T47D cells) [µM] | percentage of apoptotic cells (TUNEL) (LNCaP cells [3]) [%] | antitumour efficacy [5]
1 | 5 | CC1=C(/C=C/C(C)=C/C=C/C(C)=C\C(=O)Nc2ccc(O)cc2)C(C)(C)CCC1n1ccnc1 (stereo not shown) [VN/69-1] | 13.39 | 6.20 | 11.14 | 82.66 | concentration-dependent induction of apoptosis | – | – | – | – | – | –
2 | 4.5 | CC1=C(/C=C/C(C)=C/C=C/C(C)=C/C(=O)Nc2ccc(O)cc2)C(C)(C)CCC1n1ccnc1 (stereo not shown) [VN/66-1] | 14.49 | 5.07 | 11.14 | 83.80 | concentration-dependent induction of apoptosis | – | – | – | – | – | –
3 | 10 | CC1=C(/C=C/C(C)=C/C=C/C(C)=C/C(=O)O)C(C)(C)CCC1n1ccnc1 (stereo not shown) [VN/14-1] | 17.88 | 10.15 | 7.26 | 82.59 | concentration-dependent induction of apoptosis | – | – | – | – | 17.03 | excellent antitumour efficacy

Row | SMILES | IC50 (LNCaP cells [1]) [µM] | Sub-G1 (%) (LNCaP cells [2]) | G2/M (%) (LNCaP cells [2]) | S (%) (LNCaP cells [2]) | G0/G1 (%) (LNCaP cells [2]) | induction of apoptosis (TUNEL) (LNCaP cells [3]) | Bad expression compared with control (Bad) | reduction of body weights compared to control ([4]; data not shown) [%] | toxicity to the mice [4] | IC50 (T47D cells) [µM] | percentage of apoptotic cells (TUNEL) (LNCaP cells [3]) [%] | antitumour efficacy [5]
4 | CC1=C(/C=C/C(C)=C/C=C/C(C)=C/C(=O)O)C(C)(C)CCC1 [ATRA, all-trans-retinoic acid, reference compound] | 4.3 | 13.64 | 12.42 | 9.84 | 77.74 | concentration-dependent induction of apoptosis | significant increase | ~25 | – | – | – | –
5 | CC1=C(/C=C/C(C)=C/C=C/C(C)=C/C(=O)n2ccnc2)C(C)(C)CCC1n1ccnc1 (stereo not shown) [VN/50-1] | 6 | 17.67 | 7.30 | 11.38 | 81.33 | concentration-dependent induction of apoptosis | – | – | very toxic; also recorded: toxic | 0.01 | 17.03 | –
